Data from ChEMBL document CHEMBL1201862, “PubChem BioAssay data set” (2004).
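Step 1: Grow cells in 96-well plates. Step 2: Expose to compound for 48 hours at 5 concentrations. Step 3: Interpolate endpoints linearly; if unreached, use highest concentration. The concentration for 50% growth inhibition is given as GI50.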 Calls of active or inactive are those of the source. Rule as the data show it: active = GI50 up to about 1.1 µM and inactive = higher.

Experiments:
Experiment in all cases: growth of human tumour cells (NCI), 48 h
RPMI-8226 = tested on: RPMI-8226
SF-295 = tested on: SF-295
A549 = tested on: A549
LXFL 529 = tested on: LXFL 529
IGROV-1 = tested on: IGROV-1
TK-10 = tested on: TK-10
OVCAR-4 = tested on: OVCAR-4
SF-268 = tested on: SF-268
NCI-H522 = tested on: NCI-H522
M14 = tested on: M14
LOX IMVI = tested on: LOX IMVI
SK-MEL-2 = tested on: SK-MEL-2
SNB-19 = tested on: SNB-19
786-0 = tested on: 786-0
M19-MEL = tested on: M19-MEL
SW-620 = tested on: SW-620
HT-29 = tested on: HT-29
OVCAR-3 = tested on: OVCAR-3
HL-60 = tested on: HL-60
K562 = tested on: K562
KM12 = tested on: KM12
DLD-1 = tested on: DLD-1
NCI-H460 = tested on: NCI-H460
OVCAR-5 = tested on: OVCAR-5
SNB-78 = tested on: SNB-78
Malme-3M = tested on: Malme-3M
DMS-114 = tested on: DMS-114
CCRF-CEM = tested on: CCRF-CEM
HOP-18 = tested on: HOP-18
HOP-62 = tested on: HOP-62
SF-539 = tested on: SF-539
A498 = tested on: A498
KM-20L2 = tested on: KM-20L2
HCC 2998 = tested on: HCC 2998
SK-MEL-28 = tested on: SK-MEL-28
SNB-75 = tested on: SNB-75
UACC-257 = tested on: UACC-257
U-251 = tested on: U-251
DMS-273 = tested on: DMS-273
CAKI-1 = tested on: CAKI-1
HCT-15 = tested on: HCT-15
MOLT-4 = tested on: MOLT-4
RXF 393 = tested on: RXF 393
SK-OV-3 = tested on: SK-OV-3
UO-31 = tested on: UO-31
NCI-H23 = tested on: NCI-H23
SK-MEL-5 = tested on: SK-MEL-5
NCI-H226 = tested on: NCI-H226
SN12C = tested on: SN12C
ACHN = tested on: ACHN
COLO 205 = tested on: COLO 205
OVCAR-8 = tested on: OVCAR-8
UACC-62 = tested on: UACC-62
HCT-116 = tested on: HCT-116
EKVX = tested on: EKVX
XF498 = tested on: XF498
SR = tested on: SR
HOP-92 = tested on: HOP-92

Measured: GI50

COc1cccc2c1C(=O)C1(O)CCCCC21 (configuration not stated)
> 100 µM: HCT-15
inactive: RPMI-8226 > 100 µM | SF-295 > 100 µM | A549 > 100 µM | LXFL 529 > 100 µM | IGROV-1 > 100 µM | TK-10 > 100 µM | OVCAR-4 > 100 µM | SF-268 > 100 µM | NCI-H522 > 100 µM | M14 > 100 µM | LOX IMVI > 100 µM | SK-MEL-2 > 100 µM | SNB-19 > 100 µM | 786-0 > 100 µM | M19-MEL > 100 µM | SW-620 > 100 µM | HT-29 > 100 µM | OVCAR-3 > 100 µM | HL-60 > 100 µM | K562 > 100 µM | KM12 > 100 µM | DLD-1 > 100 µM | NCI-H460 > 100 µM | OVCAR-5 > 100 µM | SNB-78 > 100 µM | Malme-3M > 100 µM | DMS-114 > 100 µM | CCRF-CEM > 100 µM | HOP-18 > 100 µM | HOP-62 > 100 µM | SF-539 > 100 µM | A498 > 100 µM | KM-20L2 > 100 µM | HCC 2998 > 100 µM | SK-MEL-28 > 100 µM | SNB-75 > 100 µM | UACC-257 > 100 µM | U-251 > 100 µM | DMS-273 > 100 µM | CAKI-1 > 100 µM | MOLT-4 > 100 µM | RXF 393 > 100 µM | SK-OV-3 > 100 µM | UO-31 > 100 µM | NCI-H23 > 100 µM | SK-MEL-5 > 100 µM | NCI-H226 > 100 µM | SN12C > 100 µM | ACHN > 100 µM | COLO 205 > 100 µM | OVCAR-8 > 100 µM | UACC-62 > 100 µM | HCT-116 > 100 µM

NC(=O)N1N=C2c3ccccc3SC[C@H]2[C@@H]1c1ccccc1
inactive: RPMI-8226 33.4 µM | SF-295 25.1 µM | A549 37.3 µM | LXFL 529 26.5 µM | IGROV-1 26.6 µM | TK-10 32.1 µM | OVCAR-4 26.9 µM | SF-268 33.3 µM | NCI-H522 > 10 µM | EKVX 35 µM | LOX IMVI 17.5 µM | SNB-19 34.5 µM | XF498 22 µM | 786-0 29 µM | M19-MEL 34.6 µM | SW-620 33.7 µM | HT-29 19.7 µM | OVCAR-3 16.9 µM | HL-60 21.3 µM | K562 24.2 µM | KM12 > 10 µM | DLD-1 21.4 µM | NCI-H460 19.1 µM | OVCAR-5 21.3 µM | SNB-78 33.5 µM | Malme-3M 26.9 µM | DMS-114 23.7 µM | CCRF-CEM 23.1 µM | HOP-62 25.6 µM | A498 35.1 µM | KM-20L2 20.2 µM | HCC 2998 26.9 µM | SK-MEL-28 21.8 µM | SR 30 µM | UACC-257 18.4 µM | U-251 22.1 µM | MOLT-4 23.7 µM | RXF 393 2.26 µM | UO-31 23.9 µM | NCI-H23 35.6 µM | SK-MEL-5 8.07 µM | NCI-H226 22.2 µM | SN12C 33.8 µM | ACHN 33.3 µM | COLO 205 20.7 µM | OVCAR-8 24 µM | HCT-116 13.5 µM
23.9 µM: HCT-15

CCOC(=O)/C=C1/Oc2ccccc2C1(C)O (configuration not stated)
> 100 µM: HCT-15
inactive: RPMI-8226 84.5 µM | SF-295 > 100 µM | A549 > 100 µM | LXFL 529 > 100 µM | IGROV-1 > 100 µM | TK-10 > 100 µM | OVCAR-4 > 100 µM | SF-268 > 100 µM | NCI-H522 > 100 µM | M14 > 100 µM | EKVX > 100 µM | LOX IMVI > 100 µM | SK-MEL-2 > 100 µM | SNB-19 > 100 µM | 786-0 > 100 µM | M19-MEL > 100 µM | SW-620 > 100 µM | HT-29 > 100 µM | OVCAR-3 > 100 µM | HL-60 > 100 µM | K562 > 100 µM | KM12 > 100 µM | DLD-1 > 100 µM | NCI-H460 > 100 µM | OVCAR-5 > 100 µM | SNB-78 > 100 µM | Malme-3M > 100 µM | DMS-114 > 100 µM | CCRF-CEM > 100 µM | HOP-18 > 100 µM | HOP-62 > 100 µM | A498 > 100 µM | KM-20L2 > 100 µM | HCC 2998 > 100 µM | SK-MEL-28 > 100 µM | SNB-75 > 100 µM | UACC-257 > 100 µM | U-251 > 100 µM | DMS-273 > 100 µM | CAKI-1 > 100 µM | HOP-92 > 100 µM | MOLT-4 > 100 µM | RXF 393 68.7 µM | SK-OV-3 > 100 µM | UO-31 > 100 µM | NCI-H23 > 100 µM | SK-MEL-5 > 100 µM | NCI-H226 > 100 µM | SN12C > 100 µM | ACHN > 100 µM | COLO 205 > 100 µM | OVCAR-8 > 100 µM | UACC-62 > 100 µM | HCT-116 > 100 µM
